Reference: patent publication US8642834B2, “Methods for the identification of agents that inhibit mesenchymal-like tumor cells or their formation” (OSI Pharmaceuticals, LLC, priority 2009, dated 2014)

Experiments:
Assay type in all cases: cell-based, human
CFPAC1 cells = experiment: Transcriptional changes to EMT genes, qPCR
Protocol: (§1) The CFPAC1 cell line was cultured in DMEM media (Gibco #11960) supplemented with 10% FBS (Sigma), 2 mM L Glutamine (Gibco), at 37° C., 5% CO2. For 7 day treatments, cells were seeded on tissue culture plastic in complete growth media and allowed to attach overnight at cell densities that would provide approximately 60-80% confluence at end of experiment. Ligand and/or inhibitor was added the following day (Day 0) in complete growth media and incubated at 37° C., 5% CO2. Ligand source and concentrations used are as follows: [1] From R&D systems, SDF-1α (stromal derived factor-1 alpha) at 100 ng/ml, TRANCE (TNF-related activation induced cytokine) at 50 ng/ml, FGF1 (fibroblast growth factor acidic) at 10 ng/ml, FGF2 (fibroblast growth factor basic) at 10 ng/ml, BMP4 (bone morphogenetic protein 4) at 100 ng/ml, BMP7 (bone morphogenetic protein 7) at 100 ng/ml, IGF2 (insulin-like growth factor 2) at 100 ng/ml, OSM (Oncostatin M) at 100 ng/ml, NRG1 (Neuregulin-1) at 50 ng/ml, PDGFaa (Platelet derived growth factor a) at 50 ng/ml, PDGFbb (platelet derive growth factor b) at 30 ng/ml, Ang2 (Angiopoeitin 2) at 400 ng/ml, amphiregulin at 100 ng/ml, HMGB 1 (Human high-mobility group box 1 protein) at 50 ng/ml; [2] From Genscript, LIF (Leukemia inhibitory factor) at 20 ng/ml, GM-CSF (Granulocyte macrophage colony stimulating factor) at 25 ng/ml, M-CSF (Macrophage colony stimulating factor) at 50 ng/ml; [3] From Anaspec, PAR1 (Protease activated receptor 1 agonist) at 100 μM; PAR2 (Protease activated receptor 2 agonist; peptide SLIGKV-NH2, Cat. No. 60217-1) at 100 μM; PAR4 (Protease activated receptor […] agonist; peptide AYPGKF-NH2, Cat. No. 60218-1) at 100 μM; [4] From Peprotech, HGF (Hepatocyte Growth Factor) at 100 ng/ml; IL-31 (Interleukin-31) at 50 ng/ml, IL-33 (Interleukin-33) at 50 ng/ml, IL1-a (Interleukin-1 alpha) at 10 ng/ml, CTGF (Connective tissue growth factor) at 20 ng/ml, WISP1 (Wnt-1 inducible signaling pathway protein) at 20 ng/ml, PTHrP ([…] hormone-related protein) at 50 ng/ml, MCP1 (monocyte chemotactic protein-1) at 50 ng/ml; and [5] from Sigma, Fulvestrant at 1 μM. Fresh medium containing ligand and/or inhibitor was added 3-4 days after initial dose, and at Day 7 cells were harvested for western blot analysis.
Cells were plated and treated with ligand for one or 7 days. At the time of harvest, cells were trypsinized and snap frozen for later use. Total RNA was isolated using RNAqueous-4 PCR Kit (Ambion, AM1914). For qPCR on tumor material, the tumor samples were homogenized using a small tissue homogenizer (Ultra-Turrax T8 from IKA-Werke) in 175ul RNA lysis buffer. Homogenization was for 1 minute on ice. RNA was isolated using the SV Total RNA Isolation System (Promega Cat #Z3100) according to the manufactures instructions. Samples were DNase treated using the Turbo DNA-Free kit (Ambion, AM1907) and reverse transcribed using Superscript III (Invitrogen, 18080-044) for qPCR analysis. Taqman primers and Locked-Nucleic Acid probes were designed using ProbeFinder software (Universal Probe library, Roche). For mRNA analysis, real time PCR was performed using the ABI 7900HT series PCR machine. Thermocycle conditions were as follows: 50° C. for 2 minutes, 95° C. for 10 minutes, 95° C. for 15 seconds, 50° C. for 10 seconds, 60° C. for 1 minute. Data was collected over 45 cycles and then normalized to GAPDH and further normalized to the untreated control sample.

CFPAC-1 cells [1] = experiment: Induction of EMT by growth factors and cytokines, E-cadherin and vimentin immunoblotting; conditions: CFPAC-1 cells treated 7 days with ligand
Protocol: as §1
Cells were harvested by washing once with PBS, and lysing on ice for 10 minutes with scraping (using a Cell Lifter, Corning Inc. #3008) in ice cold RIPA buffer (Sigma R0278) containing Protease inhibitor (Sigma P8340), Phosphatase inhibitors (Sigma P2850, P5726) and 200 μM Sodium Vanadate. Supernatents were micro-centrifuged at max speed, 4° C. for 10 minutes. Protein content was quantitated using the BCA method (Pierce #23225) and samples were normalized to total protein in Laemli buffer and heated at 100° C. for 10 minutes. SDS PAGE was run using a Bis-Tris gel system (Invitrogen NuPAGE) with MOPS buffer (Invitrogen NP0001), transferred onto nitrocellulose using the iBLOT system (Invitrogen) and blocked in PBS-T (0.1% Tween 20), 5% non-fat milk or BSA in guidance with primary Ab supplier requirements. All primary antibodies were incubated overnight at 4° C. in PBS-T (0.1% Tween 20) in either 5% non-fat milk or BSA, diluted to the following working dilutions: anti E Cadherin (Santa Cruz #sc-21791) 1:500 dilution; anti Vimentin (BD Biosciences #550513) 1:2000 dilution;); anti GAPDH HRP conjugate (Santa Cruz sc-25778) 1:1000 dilution; anti β-Actin (Sigma, A5441) 1:10,000 dilution. […]

CFPAC-1 cells [2] = experiment: Cell morphology by light microscopy; conditions: treated 7 days; versus untreated cells that formed colonies
Protocol: The CFPAC1 cell line was cultured in DMEM media (Gibco #11960) supplemented with 10% FBS (Sigma), 2 mM L Glutamine (Gibco), at 37° C., 5% CO2. For 7 day treatments, cells were seeded on tissue culture plastic in complete growth media and allowed to attach overnight at cell densities that would provide approximately 60-80% confluence at end of experiment. Ligand and/or inhibitor was added the following day (Day 0) in complete growth media and incubated at 37° C., 5% CO2. Ligand source and concentrations used are as follows: [1] From R&D systems, SDF-1α (stromal derived factor-1 alpha) at 100 ng/ml, TRANCE (TNF-related activation induced cytokine) at 50 ng/ml, FGF1 (fibroblast growth factor acidic) at 10 ng/ml, FGF2 (fibroblast growth factor basic) at 10 ng/ml, BMP4 (bone morphogenetic protein 4) at 100 ng/ml, BMP7 (bone morphogenetic protein 7) at 100 ng/ml, IGF2 (insulin-like growth factor 2) at 100 ng/ml, OSM (Oncostatin M) at 100 ng/ml, NRG1 (Neuregulin-1) at 50 ng/ml, PDGFaa (Platelet derived growth factor a) at 50 ng/ml, PDGFbb (platelet derive growth factor b) at 30 ng/ml, Ang2 (Angiopoeitin 2) at 400 ng/ml, amphiregulin at 100 ng/ml, HMGB 1 (Human high-mobility group box 1 protein) at 50 ng/ml; [2] […]

## HGF: Hepatocyte Growth Factor from Peprotech, used at 100 ng/ml
CFPAC1 cells; ligand 1 Day
  ACTN1 mRNA fold change: NC (Only changes greater than 3 fold are reported. NC indicates no change.)
  CDH1 mRNA fold change: NC (Only changes greater than 3 fold are reported. NC indicates no change.)
  CDH2 mRNA fold change: NC (Only changes greater than 3 fold are reported. NC indicates no change.)
  ITGB3 mRNA fold change: NC (Only changes greater than 3 fold are reported. NC indicates no change.)
  MMP7 mRNA fold change: NC (Only changes greater than 3 fold are reported. NC indicates no change.)
  MTA3 mRNA fold change: NC (Only changes greater than 3 fold are reported. NC indicates no change.)
  PLAUR mRNA fold change: NC (Only changes greater than 3 fold are reported. NC indicates no change.)
  SNAI1 mRNA fold change: NC (Only changes greater than 3 fold are reported. NC indicates no change.)
  SNAI2 mRNA fold change: NC (Only changes greater than 3 fold are reported. NC indicates no change.)
  SPARC mRNA fold change: NC (Only changes greater than 3 fold are reported. NC indicates no change.)
  TWIST1 mRNA fold change: NC (Only changes greater than 3 fold are reported. NC indicates no change.)
  VIM mRNA fold change: NC (Only changes greater than 3 fold are reported. NC indicates no change.)
  ZEB1 mRNA fold change: NC (Only changes greater than 3 fold are reported. NC indicates no change.)
  ZEB2 mRNA fold change: NC (Only changes greater than 3 fold are reported. NC indicates no change.)
CFPAC1 cells; ligand 7 Day
  ACTN1 mRNA fold change: NC (Only changes greater than 3 fold are reported. NC indicates no change.)
  CDH1 mRNA fold change: NC (Only changes greater than 3 fold are reported. NC indicates no change.)
  CDH2 mRNA fold change: NC (Only changes greater than 3 fold are reported. NC indicates no change.)
  ITGB3 mRNA fold change: 3.57 fold
  MMP7 mRNA fold change: NC (Only changes greater than 3 fold are reported. NC indicates no change.)
  MTA3 mRNA fold change: NC (Only changes greater than 3 fold are reported. NC indicates no change.)
  PLAUR mRNA fold change: NC (Only changes greater than 3 fold are reported. NC indicates no change.)
  SNAI1 mRNA fold change: NC (Only changes greater than 3 fold are reported. NC indicates no change.)
  SNAI2 mRNA fold change: NC (Only changes greater than 3 fold are reported. NC indicates no change.)
  SPARC mRNA fold change: −5.41 fold
  TWIST1 mRNA fold change: 612 fold
  VIM mRNA fold change: NC (Only changes greater than 3 fold are reported. NC indicates no change.)
  ZEB1 mRNA fold change: NC (Only changes greater than 3 fold are reported. NC indicates no change.)
  ZEB2 mRNA fold change: NC (Only changes greater than 3 fold are reported. NC indicates no change.)
CFPAC-1 cells [1]
  Induction of EMT (E-cadherin down, vimentin up): most complete EMT
CFPAC-1 cells [2]
  Cell morphology: less compact with more elongated cell morphology
